From patent publication US11517574B2 (priority 2017, dated 2022)
≈ marks a conversion by molar mass, not a printed value.

Legend:
[1] = Particle size distribution by laser diffraction; assay type: physicochemical; settings: dispersive pressure 3 bar
Description: Different crystal forms of linezolid were chosen and tested for their feasibility of suspension. Two crystal modifications (polymorphs) of Linezolid: Form II (FII) and Form III (FIII) were obtained from Symed labs Ltd (India). Approximately, 1 g each of FII and FIII was jet milled using a LaboMill jet miller (F.P.S. Food and Pharma Systems s.r.l, Italy) with an injection line pressure at 7 bar and the grind line at 4 bar. The particle size distribution of the raw and air-jet milled material was analyzed by laser diffraction (Sympatec GmbH, Helos Disperse). 5 mg of each sample was placed in a dry powder disperser (RODOS/M). A reference measurement was taken before running each sample for 5 sec at 2% optical concentration. The results were obtained at a pressure of 3 bars using lenses, R1 (0.18-0.35 μm) and R2 (0.25/0.45-87.5 μm) (Table 4). The data was collected using HELOS sensor and analyzed using Windox5 software.
The particle size distribution of the raw and air-jet milled material was analyzed by laser diffraction (Sympatec GmbH, Helos Disperse). The data on the size distribution for unmilled powder (R1) and milled powder (R4) were collected and analyzed. Air jet milling reduced the particle size from D10 4 to 6 μm (D10, 10% of the mass of the sample is comprised of particles with diameter less than this range) and D90 40 to 50 μm (D90, 90% of the mass of the sample is comprised of particles with is diameter less than this range) particle size distribution to a D10 0.4 to 0.50 μm and D90 4 to 5 μm.

[2] = Suspension of milled linezolid Form II and Form III in poloxamer vehicle; assay type: physicochemical; settings: 50 mg in one mL poloxamer vehicle, manual shaking one minute
Procedure: 50 mg of each form was weighed and one mL of poloxamer vehicle was added. The particles were re-suspended by manual shaking for one minute.

[3] = Dry heat sterilization: appearance and chemical stability (UPLC)
[4] = Gamma irradiation: appearance and chemical stability (UPLC)
Gram-positive bacteria = settings: cited from earlier work
[5] = Nitrogen, no irradiation (—), Cold
[6] = Nitrogen, no irradiation (—), RT

Compound: CC(=O)NC[C@H]1CN(c2ccc(N3CCOCC3)c(F)c2)C(=O)O1 [FII, (S)—N-[[3-[3-fluoro-4-(4-morpholinyl)phenyl]-2-oxo-5-oxazolidinyl]methyl] acetamide]
- Particle size distribution X10 ([1]; Jet milled): 0.61 ± 0.01 μm
- Particle size distribution X50 ([1]; Jet milled): 1.79 ± 0.03 μm
- Particle size distribution X90 ([1]; Jet milled): 3.95 ± 0.04 μm
- VMD (Volume mean diameter in μm) ([1]; Jet milled): 2.07 μm
- Particle size distribution X10 ([1]; Raw (pre-milled)): 0.94 μm
- Particle size distribution X50 ([1]; Raw (pre-milled)): 3.79 μm
- Particle size distribution X90 ([1]; Raw (pre-milled)): 44.75 μm
- VMD (Volume mean diameter in μm) ([1]; Raw (pre-milled)): 14.70 μm
- Suspension behaviour of air jet milled particles [2]: dispersed uniformly
- Appearance ([3]; dry heat 120° C., 20 hr): Powder
- Chemical Stability % expected parent (2-8° C. (control) t = 0) ([3]; dry heat 120° C., 20 hr): 100%
- Appearance ([3]; dry heat 120° C., 50 hr): Powder
- Chemical Stability % expected parent (2-8° C. (control) t = 0) ([3]; dry heat 120° C., 50 hr): 99%
- Appearance ([3]; dry heat 130° C., 8 hr): Yellow
- Chemical Stability % expected parent (2-8° C. (control) t = 0) ([3]; dry heat 130° C., 8 hr): 39%
- Appearance ([3]; dry heat 130° C., 20 hr): Yellow
- Chemical Stability % expected parent (2-8° C. (control) t = 0) ([3]; dry heat 130° C., 20 hr): 26%
- Appearance ([3]; dry heat 130° C., 50 hr): Yellow
- Chemical Stability % expected parent (2-8° C. (control) t = 0) ([3]; dry heat 130° C., 50 hr): 19%
- Appearance ([3]; dry heat 140° C., 4 hr): Yellow
- Chemical Stability % expected parent (2-8° C. (control) t = 0) ([3]; dry heat 140° C., 4 hr): 52%
- Appearance ([3]; dry heat 140° C., 8 hr): Powder
- Chemical Stability % expected parent (2-8° C. (control) t = 0) ([3]; dry heat 140° C., 8 hr): 97%
- Appearance ([3]; dry heat 140° C., 20 hr): Yellow
- Chemical Stability % expected parent (2-8° C. (control) t = 0) ([3]; dry heat 140° C., 20 hr): 17%
- Appearance ([3]; dry heat 160° C., 2 hr): Yellow
- Chemical Stability % expected parent (2-8° C. (control) t = 0) ([3]; dry heat 160° C., 2 hr): 16%
- Stability % 25° C. day 28 ([4]; Air, 15 KGy, Cold): 99.4%
- Stability % 40° C. day 28 ([4]; Air, 15 KGy, Cold): 98.0%
- Stability % t = 0 ([4]; Air, 15 KGy, Cold): 99%
- Stability % 25° C. day 28 ([4]; Air, 15 KGy, RT): 99.4%
- Stability % 40° C. day 28 ([4]; Air, 15 KGy, RT): 99.1%
- Stability % t = 0 ([4]; Air, 15 KGy, RT): 99.5%
- Stability % 25° C. day 28 ([4]; Air, 25 KGy, Cold): 99.6%
- Stability % 40° C. day 28 ([4]; Air, 25 KGy, Cold): 99.7%
- Stability % t = 0 ([4]; Air, 25 KGy, Cold): 100%
- Stability % 25° C. day 28 ([4]; Air, 25 KGy, RT): 100%
- Stability % 40° C. day 28 ([4]; Air, 25 KGy, RT): 98.9%
- Stability % t = 0 ([4]; Air, 25 KGy, RT): 100%
- Stability % 25° C. day 28 ([4]; Air, no irradiation (—), Cold): 98.1%
- Stability % 40° C. day 28 ([4]; Air, no irradiation (—), Cold): 99.6%
- Stability % t = 0 ([4]; Air, no irradiation (—), Cold): 100%
- Stability % 25° C. day 28 ([4]; Air, no irradiation (—), RT): 99.5%
- Stability % 40° C. day 28 ([4]; Air, no irradiation (—), RT): 100.1%
- Stability % t = 0 ([4]; Air, no irradiation (—), RT): 100%
- Stability % 25° C. day 28 ([4]; Nitrogen, 15 KGy, Cold): 97.5%
- Stability % 40° C. day 28 ([4]; Nitrogen, 15 KGy, Cold): 99.3%
- Stability % t = 0 ([4]; Nitrogen, 15 KGy, Cold): 100%
- Stability % 25° C. day 28 ([4]; Nitrogen, 15 KGy, RT): 98.8%
- Stability % 40° C. day 28 ([4]; Nitrogen, 15 KGy, RT): 99.5%
- Stability % t = 0 ([4]; Nitrogen, 15 KGy, RT): 100%
- Stability % 25° C. day 28 ([4]; Nitrogen, 25 KGy, Cold): 100%
- Stability % 40° C. day 28 ([4]; Nitrogen, 25 KGy, Cold): 99.3%
- Stability % t = 0 ([4]; Nitrogen, 25 KGy, Cold): 100%
- Stability % 25° C. day 28 ([4]; Nitrogen, 25 KGy, RT): 99.6%
- Stability % 40° C. day 28 ([4]; Nitrogen, 25 KGy, RT): 99.4%
- Stability % t = 0 ([4]; Nitrogen, 25 KGy, RT): 100.5%
- Stability % 25° C. day 28 [4, 5]: 99.6%
- Stability % 40° C. day 28 [4, 5]: 99%
- Stability % t = 0 [4, 5]: 100%
- Stability % 25° C. day 28 [4, 6]: 98.7%
- Stability % 40° C. day 28 [4, 6]: 97.7%
- Stability % t = 0 [4, 6]: 99.5%

Compound: CC(=O)NC[C@H]1CN(c2ccc(N3CCOCC3)c(F)c2)C(=O)O1 [Linezolid, (S)—N-[[3-[3-fluoro-4-(4-morpholinyl)phenyl]-2-oxo-5-oxazolidinyl]methyl] acetamide]
- MIC (Gram-positive bacteria): 4 µg/mL (≈ 11.9 µM)

Compound: CC(=O)NC[C@H]1CN(c2ccc(N3CCOCC3)c(F)c2)C(=O)O1 [FIII]
- Particle size distribution X10 ([1]; Jet milled): 0.63 ± 0.01 μm
- Particle size distribution X50 ([1]; Jet milled): 2.06 ± 0.02 μm
- Particle size distribution X90 ([1]; Jet milled): 4.50 ± 0.12 μm
- VMD (Volume mean diameter in μm) ([1]; Jet milled): 2.38 μm
- Particle size distribution X10 ([1]; Raw (pre-milled)): 1.03 μm
- Particle size distribution X50 ([1]; Raw (pre-milled)): 4.33 μm
- Particle size distribution X90 ([1]; Raw (pre-milled)): 11.46 μm
- VMD (Volume mean diameter in μm) ([1]; Raw (pre-milled)): 5.52 μm
- Suspension behaviour of air jet milled particles ([2]; listed as Form III): formed lumps and were not evenly distributed
